Measured values: patent US20130115293A1, “Therapeutic Polymeric Nanoparticles Comprising Corticosteroids and Methods of Making and Using Same” (priority 2009, published 2013)
Values joined by “and” are separate entries in the source; they are usually repeats but may differ in a detail not shown here. Equal values may be shown once. Read-outs that look alike come from different tables or passages of the source. One block for each compound: values may come before it.

Assays:
[1] = Solubility of drug in beta cyclodextrin (BCD) release medium; format: physicochemical
Procedure: For in vitro release studies using the procedure of Example 3, beta cyclodextrin (BCD) was evaluated as a solubilizer for maintaining sink conditions during the release of ciclesonide into the release medium.

[2] = Rat study: pharmacokinetics, plasma levels by LCMS; format: in vivo, Rats (male Sprague Dawley); conditions: single intravenous dose 0.5 mg/kg; for AUC(0-inf) / clearance / Cmax / Vd / half-life: male, Sprague Dawley, iv, 0.5 mg/kg
Procedure: Rats (male Sprague Dawley, approximately 300 g with jugular cannulae) were given a single intravenous dose of 0.5 mg/kg of budesonide or passively targeted nanoparticles (PTNP) encapsulating budesonide (prepared as in Example 7) at time=0. At various times after dosing, blood samples were collected from the jugular cannulae into tubes containing lithium heparin, and plasma was prepared. Plasma levels were determined by extraction of the budesonide from plasma followed by LCMS analysis.

[3] = system: indomethacin-induced IBD; test: Rat model of inflammatory bowel disease (indomethacin induced); format: in vivo, rats; conditions: for intestinal score decrease towards normal: days -1 to 3, scored day 4; for small intestine weight decrease toward normal: days -1 to 3, weighed day 4
Procedure: Budesonide and Budesonide PTNP were compared in a model of inflammatory bowel disease (IBD) as an efficacy model of inflammation. In this model, female rats were given two subcutaneous doses of 8 mg/kg indomethacin at 24 hour intervals to induce lesions resembling those occurring in Crohn's disease in the small intestine. Intravenous daily treatment with vehicle, budesonide (0.02, 0.2 or 2 mg/kg) or budesonide PTNP (0.02, 0.2 or 2 mg/kg) or oral daily treatment with Dexamethasone (0.1 mg/kg) was initiated one day before indomethacin treatment (day −1) and continued for 5 total days (days −1 to 3). Animals were euthanized on day 4, and a 10 cm area at risk in the small intestine was scored for gross pathology and weighed.
Using a disease scoring system in which a score of 0 is normal, and a score of 5 indicates death due to IBD symptoms, normal rats have an average score of 0, and an average intestinal weight of 0.488 g.

[MOM] ([1]; 10% wt BCD in PBS): 93.5 µg/mL
[MOM] ([1]; […] wt BCD in PBS): 33.42 µg/mL
SMILES: C[C@@H]1C[C@H]2[C@@H]3CCC4=CC(=O)C=C[C@]4(C)[C@@]3(Cl)[C@@H](O)C[C@]2(C)[C@@]1(OC(=O)c1ccco1)C(=O)CCl [MOM, Mometasone Furoate]

AUC(0-inf) ([2]; average of 6 rats, read-out: AUCinf (hr * ng/mL), Avg): 148 ng·h/mL
clearance ([2]; average of 6 rats, read-out: Cl (mL/hr/kg), Avg (converted)): 3480 mL/h/kg
Cmax ([2]; average of 6 rats, read-out: Cmax (ng/mL), Avg): 286 ng/mL
Vd ([2]; average of 6 rats, read-out: Vz (mL/kg), Avg): 3740 mL/kg
half-life ([2]; average of 6 rats, read-out: t1/2 (hr), Avg (converted)): 0.75 h
AUC(0-inf) ([2]; individual animals, read-out: AUCinf (hr * ng/mL), individual rats): 159 ng·h/mL
clearance ([2]; individual animals, read-out: Cl (mL/hr/kg), individual rats (converted)): 3140 mL/h/kg
Cmax ([2]; individual animals, read-out: Cmax (ng/mL), individual rats): 324 ng/mL
Vd ([2]; individual animals, read-out: Vz (mL/kg), individual rats): 3310 mL/kg
half-life ([2]; individual animals, read-out: t1/2 (hr), individual rats (converted)): 0.73 h
SMILES: CCCC1O[C@@H]2C[C@H]3[C@@H]4CCC5=CC(=O)C=C[C@]5(C)[C@H]4[C@@H](O)C[C@]3(C)[C@]2(C(=O)CO)O1 (some centres unmarked) [Budesonide, budesonide]
Cl (mL/hr/kg), individual rats ([2]; individual animals): 3966 mL/h/kg and 4611 mL/h/kg and 3104 mL/h/kg and 3151 mL/h/kg and 2892 mL/h/kg
Cmax (ng/mL), individual rats ([2]; individual animals): 241 ng/mL and 226 ng/mL and 337 ng/mL and 306 ng/mL and 279 ng/mL
Vz (mL/kg), individual rats ([2]; individual animals): 4291 mL/kg and 4937 mL/kg and 3104 mL/kg and 3191 mL/kg and 3627 mL/kg
intestinal score decrease towards normal ([3]; 0.02 mg/kg intravenous daily): 52%
small intestine weight decrease toward normal ([3]; 0.02 mg/kg intravenous daily): 52%
intestinal score decrease towards normal ([3]; 0.2 mg/kg intravenous daily): 53%
small intestine weight decrease toward normal ([3]; 0.2 mg/kg intravenous daily): 53%
intestinal score decrease towards normal ([3]; 2 mg/kg intravenous daily): 59%
small intestine weight decrease toward normal ([3]; 2 mg/kg intravenous daily): 59%

[ciclesonide] ([1]; 10% wt BCD): 133 µg/mL
[ciclesonide] ([1]; […] wt BCD): 17.58 µg/mL
SMILES: CC(C)C(=O)OCC(=O)[C@@]12O[C@H](C3CCCCC3)O[C@@H]1C[C@H]1[C@@H]3CCC4=CC(=O)C=C[C@]4(C)[C@H]3[C@@H](O)C[C@@]12C [ciclesonide]
